The test relates to HBMEC (Human Brain Microvascular Endothelial Cell). The test can be described thus: Nitric oxide production in HBMEC, gintonin pretreatment before NOS inhibitor. The note with it: 100 uM synthase inhibitor, 1 h, vs DMSO only. Type of test: cell-based. As for the experimental part: First of all, HBMEC (Human Brain Microvascular Endothelial Cell) or imHBMEC (immortalized Human Brain Microvascular Endothelial Cell) were cultured in an appropriate culture medium under air conditions of 37° C., 5% carbon dioxide and 95% relative humidity. When the cells reached 80 to 90% confluency (average ~2 days), 10 ug/mL of gintonin was first pretreated and incubated for 1 hour, and then, a nitric oxide synthase (NOS) inhibitor was treated and incubated for another hour, then, the effect of changes in nitric oxide (NO) production was investigated. Afterwards, the concentration of nitric oxide synthase inhibitor was treated at 100 and 300 uM.

SMILES strings stand for the structures.

Consider `COC(=O)[C@@H](N)CCCNC(=N)N[N+](=O)[O-].Cl` [synthase inhibitor], for which the “reduction of nitric oxide (relative production)” value is listed as “about 20%”.

The values above are taken from patent publication US20260216280A1, “COMPOSITION FOR PREVENTING AND TREATING ISCHEMIC CEREBROVASCULAR DISEASE COMPRISING GINTONIN” (Dongguk University Industry-Academic Cooperation Foundation, priority 2022, published 2026).
